Test results as given in patent US8148392B2, “2-indolyl imidazo [4,5-d] phenanthroline derivatives and their use in the treatment of cancer” (Lorus Therapeutics Inc., priority 2005, dated 2012).
Entries after “also recorded” stand apart in the source; their conditions may differ. One block for each compound: values may come before it.

Key:
Assay type in all cases: cell-based, human
HT-29 cells [1] = assay: Cell cycle analysis by flow cytometry, HT-29; conditions: HT-29, 24 hours
Description: To test the ability of compounds of Formula I to block cell cycle progression, compound 3 was incubated with human colon carcinoma HT-29 or human leukemia CCRF-CEM cells to determine alterations in populations of cells at different stages of the cell cycle using flow cytometric analysis. HT-29 cells were maintained as described in Example 13. CCRF-CEM cells used in this example and subsequent examples were maintained as suspension cells in a growth medium; RPMI-1640 medium (Sigma, St. Louis, Mo.), supplemented with 2 mM L-glutamine (Gibco, Grand Island, N.Y.), 10% fetal bovine serum (FBS) (Multicell, WISENT Inc. St-Bruno, QC), antibiotic-antimycotic (Multicell), at 37° C. in a 5% CO2-humidified incubator.
The assay was carried out as follows. For HT-29 cells, 1×10^6 cells in 10 mL volume of the growth medium were seeded in 100 mm dishes. For CCRF-CEM cells, 3×10^6 cells in 10 mL volume of the growth medium were seeded in 25 cm^2 flask. […] The fluorescence of stained cells was analyzed using FACScan flow cytometer and the Cell Quest program (BD Biosciences, San Jose, Calif.). Data were evaluated using Modfit software (Verity software House, Topsham, Me.). Values were determined by gate analysis of flow cytometric plots. […]
Cell cycle analysis was assessed by flow cytometry in HT-29 cells treated with compound 3 as shown in FIG. 27A and compound 7 as shown in FIG. 27B.

[2] = test system: MDA-MB-231 breast cancer cells; assay: XTT cell proliferation assay, MDA-MB-231; conditions: Homo sapiens, read-out: IC50 (cell growth inhibition)
Description: Cell growth inhibition IC50 (μM) by compounds of Formula I was tested on various cancer cell types by XTT cell proliferation assay. The growth inhibitory effects of the compounds of Formula I as shown below for the melanoma cell line SK-MEL-2 were reproducible by Lorus Therapeutics Inc.

HT-29 cells [3] = assay: Effect of exogenous metals on growth inhibition of HT-29 cells (XTT); conditions: HT-29, 5 days; for effect of exogenous zinc on growth inhibition: ZnCl2 (100 μM)
Description: To determine whether metal chelation is involved in the growth inhibitory activity of compounds of Formula I, exogenous metals (ZnCl2, FeCl2.4H2O, FeCl3.4H2O, MgCl2, at 100 μM) were incubated with HT-29 cells, simultaneously with control vehicle DMSO, compound 3 (5 μM), or compound 13 (25 μM), for 5 days. […] Growth inhibition by compound 13 is predicted to occur through a different mechanism than compound 3.
To determine whether chelation of copper is involved in the growth inhibitory activity of compounds of Formula I, HT-29 cells were incubated with up to 5 μM of compound 3, in the presence or absence of 25 μM CuSO4.5H20 for 5 days.
To determine whether metal chelation is involved in the growth inhibitory activity of compound 3, various concentrations of exogenous metals were incubated with HT-29 cells, simultaneously with various concentrations of compound 3, for 5 days. The exogenous metals tested were: ZnCl2 (zinc), CuSO4.5H20 (copper), FeCl2 (iron II), FeCl3.4H20 (iron III), MgCl2 (magnesium), and CaCl2.2H20 (calcium). HT-29 cells (4×10^3/well) in 100 μL volume of the growth medium were seeded in 96-well cell culture plates and incubated overnight at 37° C. The medium was removed and replaced with a total volume of 100 μl growth medium containing concentrations of metal ions as shown in FIG. 5 with compound 3 or 0.1% DMSO vehicle control. After incubation of the cells at 37° C. for 5 days, cell viability was quantitated using the XTT (sodium 3′-[1-(phenylamino-carbonyl)-3,4-tetrazolium}-bis (4-methoxy-6-nitro) benzene sulfonic acid hydrate) calorimetric assay (Roche Applied Science, Penzberg, Germany). XTT labeling reagent (1 mg/mL) was mixed with electron-coupling reagent, following the manufacturer's instructions, and 50 μl of the mixture was added directly to the cells cultured in 100 μl growth medium. The plates were further incubated at 37° C. for 4 hours and the absorbance of each well was measured by a multi-well spectrophotometer (Bio-Tek Instruments Inc.) at 460 nm. The data were adjusted relative to the blank, and were expressed as % of cell growth compared to the DMSO control.
To determine the ability of compounds 5 and 7 to chelate metals in cells, exogenous metals were added to HT-29 cells, simultaneously with various concentrations of compounds 5 and 7. Briefly, HT-29 cells were treated with various concentrations compounds 5 and 7, plus or minus copper (25 μM CuSO4.5H20) or zinc (100 μM of ZnCl2), for 5 days. Cell viability was determined by XTT assay. The effects of copper and zinc on growth inhibition of HT-29 cells are shown in FIG. 6A for compound 5 and in FIG. 6B for compound 7.
Effect of metal ion supplements on compound 3-mediated cell growth inhibition of HT-29 cells was examined by XTT cell proliferation assay.

[4] = 25 μM CuSO4, low concentrations of compound (less than 2 μM)

SMILES: Cc1[nH]c2ccccc2c1-c1nc2c3cccnc3c3ncccc3c2[nH]1 [Compound 3]
- cell cycle progression (HT-29 cells [1]): induced a block in cell cycle progression at the G1 phase; also recorded: Cell cycle arrest at G1/S phase was observed
- IC50 [2]: 5 µM
- effect of iron(III), magnesium and calcium on growth inhibition (HT-29 cells [3]): essentially no effect
- effect of exogenous copper on growth inhibition (HT-29 cells [3]; 25 μM CuSO4, high concentrations of compound (>2.5 μM)): significantly enhanced the activity
- effect of exogenous copper on growth inhibition (HT-29 cells [3]; [4]): Copper impaired the growth inhibitory activities
- effect of exogenous zinc on growth inhibition (HT-29 cells [3]): completely impaired; also recorded: impaired the growth inhibitory activities; also recorded: completely reversed by zinc only
- effect of excess iron and magnesium on growth inhibition (HT-29 cells [3]; metals at 100 μM, compound 3 5 μM): no effect

- IC50 [2]: 5 µM
SMILES: Cc1[nH]c2ccc(F)cc2c1-c1nc2c3cccnc3c3ncccc3c2[nH]1 [Compound 7]
- cell cycle progression (HT-29 cells [1]): Cell cycle arrest at G1/S phase was observed
- effect of exogenous copper on growth inhibition (HT-29 cells [3]; [4]): copper impaired the activity only at low concentrations
- effect of exogenous zinc on growth inhibition (HT-29 cells [3]): zinc impaired the growth inhibitory activities
